Patent publication US20190111040A1, “IN VIVO AMELIORATION OF ENDOGENOUS ANTI-TUMOR AUTOANTIBODIES TARGETING SURFACE TUMOR ANTIGENS VIA LOW-DOSE P4N” (THE JOHNS HOPKINS UNIVERSITY, priority 2016, published 2019)
Where a name gives a salt, the structure may show the parent alone.

Key:
[1] = tested on: Human B or T cells; experiment: Proliferation of isolated human B or T cells, MTT assay; type: cell-based
Experimental: FIG. 10 depicts the effects of P4N on cell proliferation. Human B or T cells were isolated from the PBMCs by negative selection using a magnetic sorting device (Miltenyi Biotec, Auburn, Calif.). Cell proliferation was determined by an MTT assay.
Total B-cells were isolated from human PBMCs or mouse splenocytes by negative selection using a magnetic sorting device (Miltenyi Biotec, Auburn, Calif.). Briefly, PBMCs were incubated with a cocktail of biotin-conjugated antibodies, followed by microbead-conjugated anti-biotin Abs for magnetic depletion. B-cells were eluted according to the manufacturer's protocols. Human blood samples were collected from healthy individuals following an IRB-approved protocol and in agreement with the Committee for Research Ethics Board of Chung Shan Medical University Hospital.

[2] = tested on: THP-1 cells; experiment: Cytokine and chemokine production of P4N treated THP-1, Bio-Plex and ELISA; type: cell-based, human
Experimental: THP-1 cells were treated with 3 μM of P4N or the vehicle control (NC) for 24 h. Supernatants were collected and analyzed using the Bio-Plex assay for human cytokines. Shown are the concentrations of 27 human cytokines for each treatment from three independent experiments. The levels of IL-2, IL-4, IL-6, IL-7, IL-9, IL13, IL-15, Eotaxin, G-CSF, IFN-γ and PDGF-bb were undetectable.
FIG. 13 provides graphs showing P4N-induced pro-inflammatory cytokine production in THP-1 cells. THP-1 cells were treated with 3 μM P4N for different lengths of time, Cell supernatants were collected and TNF-α, IL-1β and IL-8 quantitated by ELISA. All results are the mean of three independent experiments (n=6).

[3] = tested on: CT26 tumors; experiment: Immunohistochemical staining of tumors after P4N; type: in vivo, mice
Excerpt: Immunohistochemical staining. Tumors isolated from P4N and vehicle-treated mice were embedded in paraffin and thin sections were made and processed for immunohistochemical staining. The sections were probed with rat monoclonal anti-F4/80 (1:50 dilution; GeneTex, Irvine, Calif.) and anti-CD20 (1:200 dilution; Santa Cruz Biotechnology, Dallas, Tex.), hamster monoclonal anti-CD11c (1:25 dilution; GeneTex), rabbit monoclonal anti-CD3 (1:50 dilution; GeneTex), rabbit polyclonal anti-TNF-α and anti-IL-8 antibody (1:50 dilution; Assay BioTech. Sunnyvale, Calif.) at 4° C. overnight, and the detection antibodies were recognized using a horseradish peroxidase (HRP)-conjugated anti-rat, anti-hamster, or anti-rabbit IgG antibody (1/1,500 dilution; Santa Cruz Biotechnology). The immune complexes in the sections were visualized using the LSAB2 system (DAKO, Carpinteria, Calif.). The sections were counterstained with hematoxylin, mounted, observed under a light microscope at a magnification of 400×, and photographed.

[4] = THP-1 monocytes, 3 μM P4N, ELISA

C[C@H](Cc1ccc(OCCN2CCCCC2)c(OCCN2CCCCC2)c1)[C@@H](C)Cc1ccc(OCCN2CCCCC2)c(OCCN2CCCCC2)c1 [P4N, meso-2,3-dimethyl-1,4-bis(3,4-[2-(piperidino)ethoxyphenyl])butane tetrakishydrochloride salt]
proliferation of T-cell-depleted PBMCs [1]: increased the proliferation
proliferation of isolated T cells or B cells [1]: did not induce the proliferation
levels of IL-2, IL-4, IL-6, IL-7, IL-9, IL13, IL-15, Eotaxin, G-CSF, IFN-γ and PDGF-bb ([2]; THP-1, 3 μM P4N, 24 h): undetectable
expression of pro-inflammatory cytokines and chemokines ([2]; THP-1, 3 μM P4N, 24 h, Bio-Plex): increased the expression
time of stimulated IL-8 release [2, 4]: ≥ 8 h
time to induction of TNF-α and IL-1β expression [2, 4]: ≤ 4 h
expression levels of TNF-α and IL-8 in tumors ([3]; 5 mg/kg intratumoral, day 7, both strains of mice): enhanced the expression levels
infiltration of immune cells (macrophages, DC, T or B cells) into the tumor area ([3]; single intratumoral injection 5 mg/kg, day 7, IHC): led to the infiltration of immune cells
